Key:
Assay in all cases: biochemical
Set-up in all cases: KinomeScan competition binding panel (DiscoveRx), percent of control at 1 uM
Details in all cases: read-out: Percent Control
[1] = biological target: T1, ABL1(H396P)-phosphorylated (Homo sapiens, UniProt P00519, H396P)
T1 construct: phosphorylated
Method in brief: (§1)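 KinomeScan technology used to profile binding across a panel of 456 kinases and mutants.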

ACVRL1 = ACVRL1 (Homo sapiens, UniProt P37023)
Method in brief: as §1

ALK = ALK (Homo sapiens, UniProt Q9UM73)
Chain of ALK (Q9UM73 whole entry): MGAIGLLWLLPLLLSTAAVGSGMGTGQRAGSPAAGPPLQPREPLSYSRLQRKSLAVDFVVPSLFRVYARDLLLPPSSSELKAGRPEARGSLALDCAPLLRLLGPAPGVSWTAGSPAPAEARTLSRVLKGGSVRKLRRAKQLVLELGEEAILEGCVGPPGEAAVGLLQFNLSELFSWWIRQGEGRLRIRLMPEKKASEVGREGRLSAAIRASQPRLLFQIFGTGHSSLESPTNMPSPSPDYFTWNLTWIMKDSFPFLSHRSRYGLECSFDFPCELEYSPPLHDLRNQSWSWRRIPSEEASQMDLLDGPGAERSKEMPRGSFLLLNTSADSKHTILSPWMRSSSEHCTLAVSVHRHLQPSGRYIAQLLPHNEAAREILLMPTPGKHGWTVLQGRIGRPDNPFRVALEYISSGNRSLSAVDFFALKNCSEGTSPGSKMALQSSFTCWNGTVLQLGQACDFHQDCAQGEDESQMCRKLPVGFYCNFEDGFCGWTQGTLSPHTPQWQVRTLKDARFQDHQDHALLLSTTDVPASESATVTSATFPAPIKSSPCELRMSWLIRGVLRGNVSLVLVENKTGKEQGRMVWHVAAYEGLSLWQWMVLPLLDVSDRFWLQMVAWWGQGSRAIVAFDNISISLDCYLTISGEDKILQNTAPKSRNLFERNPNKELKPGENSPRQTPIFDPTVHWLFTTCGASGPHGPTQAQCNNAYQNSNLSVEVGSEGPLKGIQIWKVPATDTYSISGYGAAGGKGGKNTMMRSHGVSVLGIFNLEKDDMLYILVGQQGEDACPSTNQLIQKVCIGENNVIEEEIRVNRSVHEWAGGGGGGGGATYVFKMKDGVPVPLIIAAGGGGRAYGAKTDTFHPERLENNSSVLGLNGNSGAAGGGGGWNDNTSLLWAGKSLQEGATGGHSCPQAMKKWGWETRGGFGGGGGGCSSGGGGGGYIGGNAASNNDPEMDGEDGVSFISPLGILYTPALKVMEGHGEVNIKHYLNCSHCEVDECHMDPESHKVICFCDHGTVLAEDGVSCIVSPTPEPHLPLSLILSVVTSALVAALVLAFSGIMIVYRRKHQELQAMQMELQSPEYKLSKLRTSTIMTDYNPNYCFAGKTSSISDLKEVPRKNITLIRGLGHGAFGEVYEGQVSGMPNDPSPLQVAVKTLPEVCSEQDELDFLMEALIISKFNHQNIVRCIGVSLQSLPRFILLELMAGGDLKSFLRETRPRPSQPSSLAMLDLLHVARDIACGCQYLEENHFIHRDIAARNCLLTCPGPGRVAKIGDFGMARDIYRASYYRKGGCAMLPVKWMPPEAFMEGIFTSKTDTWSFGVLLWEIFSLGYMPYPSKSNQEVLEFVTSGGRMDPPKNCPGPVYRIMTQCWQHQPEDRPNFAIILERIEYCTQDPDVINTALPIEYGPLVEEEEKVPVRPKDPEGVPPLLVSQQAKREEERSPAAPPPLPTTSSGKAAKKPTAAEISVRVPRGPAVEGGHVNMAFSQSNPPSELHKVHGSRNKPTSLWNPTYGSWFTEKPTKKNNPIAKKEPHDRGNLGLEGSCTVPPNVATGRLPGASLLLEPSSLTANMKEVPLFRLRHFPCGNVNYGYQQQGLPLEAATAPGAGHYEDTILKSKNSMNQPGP
Method in brief: as §1

ALK(C1156Y) = ALK(C1156Y) (Homo sapiens, UniProt Q9UM73, C1156Y)
Chain of ALK(C1156Y) (Q9UM73 whole entry C1156Y): as the sequence (Q9UM73 whole entry) above, with C1156Y counted along it
Method in brief: as §1

BRSK2 = BRSK2 (Homo sapiens, UniProt Q8IWQ3)
Chain of BRSK2 (Q8IWQ3 whole entry): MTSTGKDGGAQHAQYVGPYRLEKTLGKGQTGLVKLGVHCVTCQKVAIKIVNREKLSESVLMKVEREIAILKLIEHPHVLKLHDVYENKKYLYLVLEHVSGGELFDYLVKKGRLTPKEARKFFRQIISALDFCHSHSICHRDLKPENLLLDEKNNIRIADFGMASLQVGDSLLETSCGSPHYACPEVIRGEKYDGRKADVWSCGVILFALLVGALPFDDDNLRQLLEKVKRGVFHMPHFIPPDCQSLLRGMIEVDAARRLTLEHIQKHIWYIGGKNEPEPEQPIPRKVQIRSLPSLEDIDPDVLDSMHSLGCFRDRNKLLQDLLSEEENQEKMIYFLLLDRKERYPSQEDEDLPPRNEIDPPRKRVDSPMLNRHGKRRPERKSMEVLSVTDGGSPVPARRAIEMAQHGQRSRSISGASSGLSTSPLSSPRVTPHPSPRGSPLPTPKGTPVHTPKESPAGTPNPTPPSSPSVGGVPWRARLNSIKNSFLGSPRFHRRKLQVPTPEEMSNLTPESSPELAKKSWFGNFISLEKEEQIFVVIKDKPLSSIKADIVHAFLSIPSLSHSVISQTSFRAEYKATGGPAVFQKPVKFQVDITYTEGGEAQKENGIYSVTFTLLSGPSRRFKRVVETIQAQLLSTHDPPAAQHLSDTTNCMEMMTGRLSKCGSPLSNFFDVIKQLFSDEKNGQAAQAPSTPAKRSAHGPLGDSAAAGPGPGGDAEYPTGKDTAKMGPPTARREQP
Method in brief: as §1

CAMK1D = CAMK1D (Homo sapiens, UniProt Q8IU85)
Method in brief: as §1

CDK5 = CDK5 (Homo sapiens, UniProt Q00535)
Method in brief: as §1

CSNK1A1L = CSNK1A1L (Homo sapiens, UniProt Q8N752)
Method in brief: as §1

[2] = biological target: EGFR(L747-S752del, P753S) (Homo sapiens, UniProt P00533, DEL747-752/P753S)
Method in brief: as §1

EPHA1 = EPHA1 (Homo sapiens, UniProt P21709)
Chain of EPHA1 (P21709 whole entry): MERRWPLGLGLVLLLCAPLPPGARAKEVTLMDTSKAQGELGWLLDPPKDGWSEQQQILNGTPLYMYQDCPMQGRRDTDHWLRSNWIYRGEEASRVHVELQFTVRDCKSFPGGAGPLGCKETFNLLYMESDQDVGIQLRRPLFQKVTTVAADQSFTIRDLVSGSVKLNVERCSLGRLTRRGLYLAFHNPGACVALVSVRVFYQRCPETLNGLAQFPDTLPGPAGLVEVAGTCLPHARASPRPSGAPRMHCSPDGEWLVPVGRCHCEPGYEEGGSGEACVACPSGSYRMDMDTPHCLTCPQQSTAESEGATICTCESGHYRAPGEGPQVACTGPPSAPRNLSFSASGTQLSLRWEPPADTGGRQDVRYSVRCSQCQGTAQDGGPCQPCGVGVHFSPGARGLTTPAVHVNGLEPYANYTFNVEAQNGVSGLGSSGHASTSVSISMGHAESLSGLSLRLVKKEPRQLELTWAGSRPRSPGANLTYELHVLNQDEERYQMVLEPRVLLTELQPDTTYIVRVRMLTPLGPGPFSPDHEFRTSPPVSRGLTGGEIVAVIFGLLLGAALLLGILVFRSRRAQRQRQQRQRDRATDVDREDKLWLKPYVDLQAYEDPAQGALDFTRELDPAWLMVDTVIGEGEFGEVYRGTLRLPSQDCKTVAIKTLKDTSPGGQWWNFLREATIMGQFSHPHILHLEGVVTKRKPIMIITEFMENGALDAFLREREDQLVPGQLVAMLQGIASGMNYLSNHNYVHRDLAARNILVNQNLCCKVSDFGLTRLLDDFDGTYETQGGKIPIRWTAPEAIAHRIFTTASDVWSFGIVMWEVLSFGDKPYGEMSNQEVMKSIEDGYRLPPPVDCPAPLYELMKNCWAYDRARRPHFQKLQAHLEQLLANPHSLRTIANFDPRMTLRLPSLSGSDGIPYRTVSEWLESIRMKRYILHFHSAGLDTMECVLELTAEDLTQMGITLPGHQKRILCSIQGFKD
Method in brief: as §1

ERN1 = ERN1 (Homo sapiens, UniProt O75460)
Method in brief: as §1

FGFR1 = FGFR1 (Homo sapiens, UniProt P11362)
Method in brief: as §1

FLT3(R834Q) = FLT3(R834Q) (Homo sapiens, UniProt P36888, R834Q)
Method in brief: as §1

GSK3B = GSK3B (Homo sapiens, UniProt P49841)
Method in brief: as §1

IKK-epsilon = biological target: T2, IKK-epsilon (Homo sapiens, UniProt Q14164)
T2 construct: gene IKBKE
T2 sequence (Q14164 whole entry): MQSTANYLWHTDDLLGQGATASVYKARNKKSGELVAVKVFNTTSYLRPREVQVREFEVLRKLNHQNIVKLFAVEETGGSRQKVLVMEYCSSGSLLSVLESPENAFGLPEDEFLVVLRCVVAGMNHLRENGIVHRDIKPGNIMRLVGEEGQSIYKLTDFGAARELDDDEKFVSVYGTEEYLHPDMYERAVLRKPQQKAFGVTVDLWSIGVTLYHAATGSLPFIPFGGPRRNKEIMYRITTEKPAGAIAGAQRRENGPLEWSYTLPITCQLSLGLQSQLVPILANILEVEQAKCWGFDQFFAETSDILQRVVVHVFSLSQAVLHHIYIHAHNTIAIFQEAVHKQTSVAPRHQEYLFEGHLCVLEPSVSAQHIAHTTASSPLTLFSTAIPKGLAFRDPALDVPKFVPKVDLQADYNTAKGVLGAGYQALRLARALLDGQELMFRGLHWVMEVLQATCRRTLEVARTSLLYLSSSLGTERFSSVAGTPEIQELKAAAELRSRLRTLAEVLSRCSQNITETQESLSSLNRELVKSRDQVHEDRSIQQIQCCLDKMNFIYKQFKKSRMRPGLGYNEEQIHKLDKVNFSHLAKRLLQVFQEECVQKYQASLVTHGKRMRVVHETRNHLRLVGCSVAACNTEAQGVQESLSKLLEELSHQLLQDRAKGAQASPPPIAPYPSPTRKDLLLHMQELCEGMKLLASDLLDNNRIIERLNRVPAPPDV
Method in brief: as §1

MAP3K4 = MAP3K4 (Homo sapiens, UniProt Q9Y6R4)
Method in brief: as §1

MAPKAPK5 = MAPKAPK5 (Homo sapiens, UniProt Q8IW41)
Method in brief: as §1

NEK4 = NEK4 (Homo sapiens, UniProt P51957)
Method in brief: as §1

PHKG2 = PHKG2 (Homo sapiens, UniProt P15735)
Method in brief: as §1

PLK2 = PLK2 (Homo sapiens, UniProt Q9NYY3)
Method in brief: as §1

PRKCD = PRKCD (Homo sapiens, UniProt Q05655)
Method in brief: as §1

PRKCQ = PRKCQ (Homo sapiens, UniProt Q04759)
Method in brief: as §1

[3] = biological target: T3, RSK2(Kin.Dom.1-N-terminal) (Homo sapiens, UniProt P51812)
T3 construct: gene RPS6KA3; Kin.Dom.1-N-terminal
T3 sequence (P51812 whole entry): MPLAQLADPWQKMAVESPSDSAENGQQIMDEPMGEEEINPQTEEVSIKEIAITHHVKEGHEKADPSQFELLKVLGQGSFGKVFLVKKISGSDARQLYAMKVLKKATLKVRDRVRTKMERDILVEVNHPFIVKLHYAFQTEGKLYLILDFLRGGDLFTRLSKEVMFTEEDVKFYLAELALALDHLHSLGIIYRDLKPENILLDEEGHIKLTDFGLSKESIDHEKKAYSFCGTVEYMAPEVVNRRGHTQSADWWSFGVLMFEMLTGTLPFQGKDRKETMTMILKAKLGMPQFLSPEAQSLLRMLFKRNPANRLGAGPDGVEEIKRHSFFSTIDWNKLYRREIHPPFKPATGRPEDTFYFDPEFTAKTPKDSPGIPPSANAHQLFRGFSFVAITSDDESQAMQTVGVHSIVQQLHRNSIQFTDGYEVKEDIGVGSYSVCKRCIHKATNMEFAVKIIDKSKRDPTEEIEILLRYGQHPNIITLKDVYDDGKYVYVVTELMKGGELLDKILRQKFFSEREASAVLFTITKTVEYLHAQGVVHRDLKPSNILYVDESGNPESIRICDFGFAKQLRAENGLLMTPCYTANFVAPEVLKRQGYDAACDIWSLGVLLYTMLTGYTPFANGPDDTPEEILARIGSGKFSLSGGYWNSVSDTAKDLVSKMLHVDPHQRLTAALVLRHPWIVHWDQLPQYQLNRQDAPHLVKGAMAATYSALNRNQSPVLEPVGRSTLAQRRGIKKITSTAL
Method in brief: as §1

SRPK1 = SRPK1 (Homo sapiens, UniProt Q96SB4)
Method in brief: as §1

SYK = SYK (Homo sapiens, UniProt P43405)
Method in brief: as §1

`C=CC(=O)Nc1cc(-n2c(=O)ccc3cnc4ccc(-n5cccn5)cc4c32)ccc1C` [CHMFL-BTK-11] gave a remaining binding at 1 µM [1] of 100%, a remaining binding at 1 µM (ACVRL1) of 90% and a remaining binding at 1 µM (ALK) of 100%. For the same molecule, the remaining binding at 1 µM (ALK(C1156Y)) was 94%, the remaining binding at 1 µM (BRSK2) was 86% and the remaining binding at 1 µM (CAMK1D) was 100%. For the same molecule, the remaining binding at 1 µM (CDK5) was 100%, the remaining binding at 1 µM (CSNK1A1L) was 100% and the remaining binding at 1 µM [2] was 86%. For the same molecule, the remaining binding at 1 µM (EPHA1) was 100%, the remaining binding at 1 µM (ERN1) was 76% and the remaining binding at 1 µM (FGFR1) was 88%. It also gave a remaining binding at 1 µM (FLT3(R834Q)) of 99%, a remaining binding at 1 µM (GSK3B) of 100% and a remaining binding at 1 µM (IKK-epsilon) of 96%. The remaining binding at 1 µM (MAP3K4) was 97%, the remaining binding at 1 µM (MAPKAPK5) was 100% and the remaining binding at 1 µM (NEK4) was 100%. The remaining binding at 1 µM (PHKG2) was 100%, the remaining binding at 1 µM (PLK2) was 91% and the remaining binding at 1 µM (PRKCD) was 86%. For the same molecule, the remaining binding at 1 µM (PRKCQ) was 100%, the remaining binding at 1 µM [3] was 85% and the remaining binding at 1 µM (SRPK1) was 100%. It also gave a remaining binding at 1 µM (SYK) of 93%.
